This note sets out measurements from patent publication US7285556B2, “Thienopyrimidine-based inhibitors of the src family” (Board of Regents, The University of Texas Systems, priority 2000, dated 2007).

This experiment addresses T1, Recombinant human Src (Homo sapiens, UniProt P12931).
T1 construct: made in house; host or cells: baculovirus-insect cell system
Description: Src tyrosine kinase activity, poly E4Y and 32P-ATP. The class given is biochemical. The method, then: Recombinant human Src was expressed using the baculovirus-insect cell system and purified as published (Budde et al., 1993 and 2000). Recombinant Csk and the FGF receptor (FGFr) were expressed as glutathione-S-transferase fusion proteins using the pGEX expression vector and E. coli, and purified as described (Sun & Budde, 1995).
The tyrosine kinase activity of Src, Csk and FGFr was determined using poly E4Y and ^32P-ATP. Briefly, enzymes were assayed in a reaction mixture consisting of 0.15 M EPPS-NaOH (pH 8.0) with 6 mM MgCl2, 0.2 mM γ^32P-ATP (0.2-0.4 mCi/μmol), 10% glycerol, 0.1% Triton X-100, and poly E4Y. Poly E4Y is a synthetic peptide whose phosphorylation is measured in this assay by the addition of the radioactively labeled phosphate from the ATP (Budde et al., 1995). […] When ATP was varied (0, 50, 100 and 250 μM), poly E4Y was kept constant at 150 μg/ml.

The mark [1] stands for this setting: Table 2, read-out: Src IC50 (especially good inhibitors of Src).
Where [2] appears, read: read-out: IC50 (preferred compounds for treatment of Src family-related disease).

Where two headings read alike, the source gives them in different places.

T1 sequence (P12931 whole entry): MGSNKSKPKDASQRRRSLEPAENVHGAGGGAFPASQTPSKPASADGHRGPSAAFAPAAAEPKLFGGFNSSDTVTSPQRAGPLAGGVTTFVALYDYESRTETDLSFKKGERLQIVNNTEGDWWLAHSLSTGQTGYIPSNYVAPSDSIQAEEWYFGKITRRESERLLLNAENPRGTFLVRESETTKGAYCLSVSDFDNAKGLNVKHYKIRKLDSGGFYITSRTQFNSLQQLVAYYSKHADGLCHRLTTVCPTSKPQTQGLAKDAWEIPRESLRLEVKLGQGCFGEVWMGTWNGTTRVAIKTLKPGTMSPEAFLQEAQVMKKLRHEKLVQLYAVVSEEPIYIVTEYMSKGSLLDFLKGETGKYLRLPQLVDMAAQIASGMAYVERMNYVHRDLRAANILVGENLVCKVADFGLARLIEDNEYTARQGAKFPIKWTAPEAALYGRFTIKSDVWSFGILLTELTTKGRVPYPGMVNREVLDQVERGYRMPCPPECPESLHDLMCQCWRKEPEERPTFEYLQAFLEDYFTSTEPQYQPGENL

In the case of `Cc1c(C(=O)O)sc2c(NN=Cc3ccc(C(=O)O)cc3)ncnc12` [Compound 466, 4-Carboxybenzaldehyde(6-carboxy-7-methylthieno[3,2-d]pyrimidin-4-yl)hydrazone], the half-maximal inhibitory concentration (IC50) – broadly, the concentration needed to halve the response being measured – by setting is: under setting [1], not above 2 µM; under setting [2], less than 2 µM.
Regarding `Cc1c(-c2cccc(CO)c2)sc2c(NN=Cc3cccnc3)ncnc12` [Compound 440, 3-Pyridinecarboxaldehyde(6-(3-hydroxymethylphenyl)-7-methylthieno[3,2-d]pyrimidin-4-yl)hydrazone], the half-inhibitory concentration (IC50) was not above 2 µM under setting [1] and less than 2 µM under setting [2].
Turning to `Cc1c(C(O)c2ccccc2)sc2c(NN=Cc3ccc(C(=O)O)cc3)ncnc12` (centres unmarked) [Compound 458, 4-Carboxybenzaldehyde(6-(1-hydroxy-1-phenyl)methyl-7-methylthieno[3,2-d]pyrimidin-4-yl)hydrazone], the 50% inhibitory concentration (IC50) under setting [1] was not above 2 µM and the 50% inhibitory concentration (IC50) under setting [2] is less than 2 µM.
Consider `Cc1c(CO)sc2c(NN=Cc3cccnc3)ncnc12` [Compound 476, 3-Pyridinecarboxaldehyde(6-hydroxymethyl-7-methylthieno[3,2-d]pyrimidin-4-yl)hydrazone], for which the IC50 reads like this: under setting [1], not above 2 µM; under setting [2], less than 2 µM.
Turning to `COc1ccc(C=NNc2ncnc3c(C)c(CO)sc23)cc1O` [Compound 478, 3-Hydroxy-4-methoxybenzaldehyde(6-hydroxymethyl-7-methylthieno[3,2-d]pyrimidin-4-yl)hydrazone], the IC50 was not above 2 µM under setting [1] and less than 2 µM under setting [2].
Consider `COc1ccc(C=NNc2ncnc3c(C)c(C(O)c4ccsc4)sc23)cc1O` (centres unmarked) [Compound 464, 3-Hydroxy-4-methoxybenzaldehyde(6-(1-hydroxy-1-[3-thienyl])methyl-7-methylthieno[3,2-d]pyrimidin-4-yl)hydrazone], for which the IC50 under setting [1] was not above 2 µM and the IC50 under setting [2] was less than 2 µM.
Turning to `Cc1c(C(O)c2ccsc2)sc2c(NN=Cc3cccnc3)ncnc12` (centres unmarked) [Compound 461, 3-Pyridinecarboxaldehyde(6-(1-hydroxy-1-[3-thienyl])methyl-7-methylthieno[3,2-d]pyrimidin-4-yl)hydrazone], the IC50 is, setting by setting: under setting [1], not above 2 µM; under setting [2], less than 2 µM.
`O=C(O)c1ccc(C=NNc2ncnc3cc(I)sc23)cc1` [Compound 395, 4-Carboxybenzaldehyde(6-iodothieno[3,2-d]pyrimidin-4-yl)hydrazone]: the half-inhibitory concentration (IC50) under setting [1] is not above 2 µM and the IC50 under setting [2] was less than 2 µM.
Turning to `Cc1c(C(O)C2CCCCC2)sc2c(NN=Cc3ccc(C(=O)O)cc3)ncnc12` (centres unmarked) [Compound 470, 4-Carboxybenzaldehyde(6-(1-cyclohexyl-1-hydroxy)methyl-7-methylthieno[3,2-d]pyrimidin-4-yl)hydrazone], the concentration for half-maximal inhibition (IC50) is not above 2 µM under setting [1] and less than 2 µM under setting [2].
In the case of `CS(=O)(=O)c1ccc(-c2cc3ncnc(NN=Cc4ccc(C(=O)O)cc4)c3s2)cc1` [Compound 291, 4-Carboxybenzaldehyde(6-(4-methanesulphonylphenyl)thieno-[3,2-d]pyrimidin-4-yl)hydrazone], the half-inhibitory concentration (IC50) was not above 2 µM under setting [1] and less than 2 µM under setting [2].
On to `O=C(O)c1ccc(C=NNc2ncnc3cc(-c4ccccc4Cl)sc23)cc1` [Compound 318, 4-Carboxybenzaldehyde(6-(2-chlorophenyl)thieno[3,2-d]pyrimidin-4-yl)hydrazone], for which the half-inhibitory concentration (IC50) reads like this: under setting [1], not above 2 µM; under setting [2], less than 2 µM.
For the compound `Cc1c(-c2ccc(CO)cc2)sc2c(NN=Cc3ccc(C(=O)O)cc3)ncnc12` [Compound 437, 4-Carboxybenzaldehyde(6-(4-hydroxymethylphenyl)-7-methylthieno[3,2-d]pyrimidin-4-yl)hydrazone], the IC50 under setting [1] was not above 2 µM and the half-maximal inhibitory concentration (IC50) under setting [2] was less than 2 µM.
`Cc1c(C(O)c2ccsc2)sc2c(NN=Cc3ccc(C(=O)O)cc3)ncnc12` (centres unmarked) [Compound 462, 4-Carboxybenzaldehyde(6-(1-hydroxy-1-[3-thienyl])methyl-7-methylthieno[3,2-d]pyrimidin-4-yl)hydrazone]: the IC50 was not above 2 µM under setting [1] and less than 2 µM under setting [2].
In the case of `Cc1c(C(O)c2cccnc2)sc2c(NN=Cc3cccnc3)ncnc12` (centres unmarked) [Compound 483, 3-Pyridinecarboxaldehyde(6-(1-hydroxy-1-[3-pyridyl])methyl-7-methylthieno[3,2-d]pyrimidin-4-yl)hydrazone], the half-maximal inhibitory concentration (IC50) under setting [1] was not above 2 µM and the IC50 under setting [2] was less than 2 µM.
On to `COc1ccc(-c2cc3ncnc(NN=Cc4ccc(C(=O)O)cc4)c3s2)cc1` [Compound 406, 4-Carboxybenzaldehyde(6-(4-methoxyphenyl)thieno[3,2-d]pyrimidin-4-yl)hydrazone], for which the IC50 by setting is: under setting [1], not above 2 µM; under setting [2], less than 2 µM.
On to `COc1ccc(C=NNc2ncnc3c(C)c(C(O)c4cccs4)sc23)cc1O` (centres unmarked) [Compound 490, 3-Hydroxy-4-methoxybenzaldehyde(6-(1-hydroxy-1-[2-thienyl])methyl-7-methylthieno[3,2-d]pyrimidin-4-yl)hydrazone], for which the IC50 was not above 2 µM under setting [1] and less than 2 µM under setting [2].
For `Cc1c(/C=C/c2ccccc2)sc2c(NN=Cc3ccc(C(=O)O)cc3)ncnc12` [Compound 448, 4-Carboxybenzaldehyde(7-methyl-6-(trans-2-phenylvinyl)-thieno[3,2-d]pyrimidin-4-yl)hydrazone], the IC50 reads like this: under setting [1], not above 2 µM; under setting [2], less than 2 µM.
Regarding `COc1ccc(-c2sc3c(NN=Cc4ccc(C(=O)O)cc4)ncnc3c2C)cc1` [Compound 423, 4-Carboxybenzaldehyde(6-(4-methoxyphenyl)-7-methylthieno[3,2-d]pyrimidin-4-yl)hydrazone], the concentration for half-maximal inhibition (IC50) under setting [1] was not above 2 µM and the 50% inhibitory concentration (IC50) under setting [2] is less than 2 µM.
`COc1ccccc1-c1sc2c(NN=Cc3cccs3)ncnc2c1C` [Compound 434, 2-Thiophenecarboxaldehyde(6-(2-methoxyphenyl)-7-methylthieno[3,2-d]pyrimidin-4-yl)hydrazone]: the IC50 runs as follows: under setting [1], not above 2 µM; under setting [2], less than 2 µM.
On to `C(=NNc1ncnc2ccsc12)c1cccnc1` [Compound 98, 3-Pyridinecarboxaldehyde(thieno[3,2-d]pyrimidin-4-yl)hydrazone], for which the IC50 runs as follows: under setting [1], not above 2 µM; under setting [2], less than 2 µM.
Regarding `Cc1csc2c(NN=Cc3ccc(O)c(Cl)c3)ncnc12` [Compound 55, 3-Chloro-4-hydroxybenzaldehyde(7-methylthieno[3,2-d]pyrimidin-4-yl)hydrazone], the IC50 under setting [1] was not above 2 µM and the IC50 under setting [2] is less than 2 µM.
The matching figures for `COc1ccc(-c2cc3ncnc(NN=Cc4cccnc4)c3s2)cc1` [Compound 405, 3-Pyridinecarboxaldehyde(6-(4-methoxyphenyl)thieno[3,2-d]pyrimidin-4-yl)hydrazone]: not above 2 µM and less than 2 µM.
Consider `COc1ccc(C=NNc2ncnc3cc(-c4ccccc4Cl)sc23)cc1O` [Compound 321, 3-Hydroxy-4-methoxybenzaldehyde(6-(2-chlorophenyl)thieno[3,2-d]pyrimidin-4-yl)hydrazone], for which the IC50 runs as follows: under setting [1], not above 2 µM; under setting [2], less than 2 µM.
The matching figures for `Cc1c(C(Cc2ccccc2)c2ccccc2)sc2c(NN=Cc3cccnc3)ncnc12` (centres unmarked) [Compound 473, 3-Pyridinecarboxaldehyde(6-(1-benzyl-1-phenyl)methyl-7-methylthieno[3,2-d]pyrimidin-4-yl)hydrazone]: not above 2 µM and less than 2 µM.
Regarding `Cc1[nH]cnc1C=NNc1ncnc2c(C)csc12` [Compound 100, 5-Methyl-1H-imidazole-4-carboxaldehyde(7-methylthieno[3,2-d]pyrimidin-4-yl)hydrazone], the concentration for half-maximal inhibition (IC50) was not above 2 µM under setting [1] and less than 2 µM under setting [2].
Take `COc1ccc(C=NNc2ncnc3c(C)c(-c4ccc(C(=O)O)cc4)sc23)cc1O` [Compound 456, 3-Hydroxy-4-methoxybenzaldehyde(6-(4-carboxyphenyl)-7-methylthieno[3,2-d]pyrimidin-4-yl)hydrazone]: the half-maximal inhibitory concentration (IC50) is not above 2 µM under setting [1] and less than 2 µM under setting [2].
On to `COc1ccc(C=NNc2ncnc3c(C)c(-c4ccsc4)sc23)cc1O` [Compound 382, 3-Hydroxy-4-methoxybenzaldehyde(7-methyl-6-(3-thienyl)thieno[3,2-d]pyrimidin-4-yl)hydrazone], for which the half-maximal inhibitory concentration (IC50) reads like this: under setting [1], not above 2 µM; under setting [2], less than 2 µM.
In the case of `Cc1c(C(=O)O)sc2c(NN=Cc3cccs3)ncnc12` [Compound 467, 2-Thiophenecarboxaldehyde(6-carboxy-7-methylthieno[3,2-d]pyrimidin-4-yl)hydrazone], the half-inhibitory concentration (IC50) under setting [2] is less than 2 µM.
With `COc1ccc(C=NNc2ncnc3c(C)c(-c4cccc(CO)c4)sc23)cc1O` [Compound 443, 3-Hydroxy-4-methoxybenzaldehyde(6-(3-hydroxymethylphenyl)-7-methylthieno[3,2-d]pyrimidin-4-yl)hydrazone], the half-inhibitory concentration (IC50) runs as follows: under setting [1], not above 2 µM; under setting [2], less than 2 µM.
Turning to `Cc1csc2c(NN=Cc3c[nH]cn3)ncnc12` [Compound 42, 1H-Imidazole-4-carboxaldehyde(7-methylthieno[3,2-d]pyrimidin-4-yl)hydrazone], the IC50 by setting is: under setting [1], not above 2 µM; under setting [2], less than 2 µM.
As for `Cc1csc2c(NN=Cc3ccc(O)c(O)c3)ncnc12` [Compound 23, 3,4-Dihydroxybenzaldehyde(7-methylthieno[3,2-d]pyrimidin-4-yl)hydrazone], the IC50 reads like this: under setting [1], not above 2 µM; under setting [2], less than 2 µM.
As for `Cc1c(C(O)c2cccs2)sc2c(NN=Cc3cccnc3)ncnc12` (centres unmarked) [Compound 487, 3-Pyridinecarboxaldehyde(6-(1-hydroxy-1-[2-thienyl])methyl-7-methylthieno[3,2-d]pyrimidin-4-yl)hydrazone], the half-maximal inhibitory concentration (IC50) under setting [2] was less than 2 µM.
